In brackets after ≈: the same amount, converted by molar mass.
Assays:
Format in all cases: cell-based
C. Krusei = assay: In vitro antibacterial (antifungal) test, two-fold dilution MIC; details: Pichia kudriavzevii, RPMI 1640, culture 2-7 days
Method: (§1) In vitro antibacterial experiments of 25 compounds as anti-bacterial and anti-cancer compounds in the patent were tested using 14 kinds of bacteria. Tested bacteria: C. albicans, C. tropicalis, C. neoformans, E. floccosum, M. gypseum, A. niger, S. schenekn, C. parapsilosis, C. glabrata, C. Krusei, Trichoderma, Gibberella, Setrosphaeria turcica, Fusarium Oxysporum Vasinfectum. (Bacteria were from the Dermatology Hospital of Chinese Academy of Medical Sciences, Nanjing, China.)
(§2) The Preparation of tested Bacteria solution was following: incubated Bacteria were added to 5 ml physiological saline, and then they were mashed and placed with ultrasound. The solution was fully mixed, and insoluble substances were removed. The treated solution was called the original bacterium solution. In the test, the bacteria concentration in the original bacterium solution was adjusted to […].
(§3) Tested Methods: the tested compounds were dissolved in dimethyl sulfoxide. and the solution was diluted with sterile distilled water. And the distilled solution was added to sterilized RPMI 1640 medium. The concentration of the compounds were adjusted to 256, 128, 64, 32, 16, 8, 4, 2, 1, 0.5, 0.25, 0.125 ug*ml-1. Then the adjusted solutions were inoculated with tested bacteria, and the tested systems were placed in the constant temperature oven to culture for 2-7 days. The concentration at which there was no growing of fungi was taken as the minimum inhibitory concentration (MIC).

C. albicans = assay: as above; details: Candida albicans, read-out: MIC C. albicas
Method: as §1, §2, §3

C. glabrata = assay: as above; details: Nakaseomyces glabratus, RPMI 1640, culture 2-7 days
Method: as §1, §2, §3

C. neoformans = assay: as above; details: Cryptococcus neoformans, RPMI 1640, culture 2-7 days
Method: as §1, §2, §3

C. parapsilosis = assay: as above; details: Lodderomyces parapsilosis, RPMI 1640, culture 2-7 days
Method: as §1, §2, §3

C. tropicalis = assay: as above; details: Candida tropicalis, RPMI 1640, culture 2-7 days
Method: as §1, §2, §3

S. schenekn = assay: as above; details: RPMI 1640, culture 2-7 days
Method: as §1, §2, §3

E. floccosum = assay: as above; details: Epidermophyton floccosum, RPMI 1640, culture 2-7 days
Method: as §1, §2, §3

[1] = tested on: Fusarium oxysporum vasinfectum; assay: as above; details: RPMI 1640, culture 2-7 days
Method: as §1, §2, §3

M. gypseum = assay: as above; details: Nannizzia gypsea, RPMI 1640, culture 2-7 days
Method: as §1, §2, §3

Setosphaeria turcica = assay: as above; details: Exserohilum turcicum, RPMI 1640, culture 2-7 days
Method: as §1, §2, §3

Terchoderma = assay: as above; details: Trichoderma, RPMI 1640, culture 2-7 days
Method: as §1, §2, §3

A375 = assay: In vitro anticancer MTT experiment; details: Homo sapiens, A-375, concentration 5 ug/ml, 48 h or 72 h, read-out: inhibition ratio A375
Method: (§4) In vitro anticancer experiments of 25 compounds as anti-bacterial and anti-cancer compounds in the patent were tested. In the test, 14 kinds of cancer cells were used as tested cancer cells. And the results obtained by MTT method were shown in table 2 (the inhibition ratio was obtained when the concentration was 5 ug/ml). Tested Cancer Cells: SGC7901, HTB-38HT-29, CRL-2233NU-398, CRL-1469PANC-1, B0192, HTB-131MDA-453, CRL-1435PC-3, FTC133, AS24391, HTB-95637. (Cancer cells were from Chinese Military Academy of Medical Sciences). Cells Culture: Culture solution was composed of RPMI 1640 medium, 10% (VAT) Fetal calf serum and 0.01% L-glutamine. Cultured cells were maintained at 37° C. in an incubator with 5% CO2. The cells at logarithmic growth phase were used in the experiment. MTT Experiment: Single cell suspension was obtained by digesting cells with 0.25% trypsin. The cells at logarithmic growth phase were collected and seeded in a 96-well plate at a concentration of 6000-7000 cells per well. After culturing for 12 h at 37° C. in the incubator with 5% CO2, the cells were again incubated with the tested compounds of various concentrations for 48 h or 72 h. Pure cultures and cells without drug were taken as blank reference and negative reference, and 8 Wells of each group were taken. Twenty microliter of MTT (5 mg/mL) was added to each well, and the mixed solutions were incubation for 4 h. The formazan product was dissolved by dimethyl sulfoxide (DMSO, 150 μL), and the optical density (O.D.) was read at 570 nm. The Inhibition Ratio was calculated by the following formula: Inhibition Ratio=(Anegative control−Asample)/(Anegative control−Ablank control)

AS24391 = assay: In vitro anticancer MTT experiment; details: concentration 5 ug/ml, 48 h or 72 h, read-out: inhibition ratio AS24391
Method: as §4

B01092 = assay: In vitro anticancer MTT experiment; details: concentration 5 ug/ml, 48 h or 72 h, read-out: inhibition ratio B01092
Method: as §4

CRL-1435PC-3 = assay: In vitro anticancer MTT experiment; details: concentration 5 ug/ml, 48 h or 72 h, read-out: inhibition ratio CRL-1435PC-3
Method: as §4

CRL-2233SNU-398 = assay: In vitro anticancer MTT experiment; details: concentration 5 ug/ml, 48 h or 72 h, read-out: inhibition ratio CRL-2233SNU-398
Method: as §4

FTC 133 = assay: In vitro anticancer MTT experiment; details: Homo sapiens, concentration 5 ug/ml, 48 h or 72 h, read-out: inhibition ratio FTC 133
Method: as §4

HTB-131MDA-MB-453 = assay: In vitro anticancer MTT experiment; details: concentration 5 ug/ml, 48 h or 72 h, read-out: inhibition ratio HTB-131MDA-MB-453
Method: as §4

HTB-38HT-29 = assay: In vitro anticancer MTT experiment; details: concentration 5 ug/ml, 48 h or 72 h, read-out: inhibition ratio HTB-38HT-29
Method: as §4

HTB-94 = assay: In vitro anticancer MTT experiment; details: concentration 5 ug/ml, 48 h or 72 h, read-out: inhibition ratio HTB-94
Method: as §4

HTB-95637 = assay: In vitro anticancer MTT experiment; details: concentration 5 ug/ml, 48 h or 72 h, read-out: inhibition ratio HTB-95637
Method: as §4

L1210 = assay: In vitro anticancer MTT experiment; details: Mus musculus, concentration 5 ug/ml, 48 h or 72 h, read-out: inhibition ratio L1210
Method: as §4

L428 = assay: In vitro anticancer MTT experiment; details: Homo sapiens, L-428, concentration 5 ug/ml, 48 h or 72 h, read-out: inhibition ratio L428
Method: as §4

CRL-1469PANC-1 = assay: In vitro anticancer MTT experiment; details: concentration 5 ug/ml, 48 h or 72 h, read-out: inhibition ratio CRL-1469PANC-1
Method: as §4

SGC7901 = assay: In vitro anticancer MTT experiment; details: Homo sapiens, SGC-7901, concentration 5 ug/ml, 48 h or 72 h, read-out: inhibition ratio SGC7901
Method: as §4

Structure (SMILES) | MIC (C. Krusei) [µg/mL] | MIC (C. albicans) [µg/mL] | MIC (C. glabrata) [µg/mL] | MIC (C. neoformans) [µg/mL] | MIC (C. parapsilosis) [µg/mL] | MIC (C. tropicalis) [µg/mL] | MIC (S. schenekn) [µg/mL] | MIC (E. floccosum) [µg/mL] | MIC [1] [µg/mL] | MIC (M. gypseum) [µg/mL] | MIC (Setosphaeria turcica) [µg/mL] | MIC (Terchoderma) [µg/mL] | inhibition at 5 µg/mL (A375) [%] | inhibition at 5 µg/mL (AS24391) [%] | inhibition at 5 µg/mL (B01092) [%] | inhibition at 5 µg/mL (CRL-1435PC-3) [%] | inhibition at 5 µg/mL (FTC 133) [%] | inhibition at 5 µg/mL (HTB-38HT-29) [%] | inhibition at 5 µg/mL (HTB-94) [%] | inhibition at 5 µg/mL (HTB-95637) [%] | other results
O=C1/C(=C\O)CSc2ccc(F)cc21 [Compound 3, 6-fluorine-3-(hydroxylmethene)thiochroman-4-one] | 32 (≈ 152 µM) | 32 (≈ 152 µM) | 64 (≈ 304 µM) | 16 (≈ 76.1 µM) | 32 (≈ 152 µM) | 32 (≈ 152 µM) | 64 (≈ 304 µM) | – | – | – | – | – | – | – | – | – | – | – | – | – | –
O=C1/C(=C/Cl)CSc2ccc(F)cc21 [Compound 7, (Z)-3-(chloromethylene)-6-fluorothiochroman-4-one] | 16 (≈ 70 µM) | 4 (≈ 17.5 µM) | 16 (≈ 70 µM) | 16 (≈ 70 µM) | 8 (≈ 35 µM) | 16 (≈ 70 µM) | 2 (≈ 8.75 µM) | 4 (≈ 17.5 µM) | 32 (≈ 140 µM) | 8 (≈ 35 µM) | 16 (≈ 70 µM) | 8 (≈ 35 µM) | 56 | 58.3 | 54.8 | 51.2 | 52.6 | 45.7 | 65.4 | 60.1 | inhibition at 5 µg/mL (CRL-2233SNU-398): 49.9%; inhibition at 5 µg/mL (HTB-131MDA-MB-453): 48.6%; inhibition at 5 µg/mL (L1210): 79.8%; inhibition at 5 µg/mL (L428): 57.3%
Cc1ccc(S/C=C2\CSc3ccc(F)cc3C2=O)cc1F [Compound 12, (Z)-6-fluoro-3-(((3-fluoro-4-methylphenyl)thio)methylene)thiochroman-4-one] | 64 (≈ 191 µM) | – | – | 8 (≈ 23.9 µM) | – | – | 64 (≈ 191 µM) | – | 16 (≈ 47.8 µM) | – | – | – | 60.4 | 49 | 48.4 | 56.6 | 54.5 | 43.2 | 47.5 | 60.5 | inhibition at 5 µg/mL (CRL-1469PANC-1): 45.6%; inhibition at 5 µg/mL (L1210): 90.9%; inhibition at 5 µg/mL (L428): 56.8%
O=C1/C(=C/Cl)SCc2ccccc21 [Compound 14, (Z)-3-(chloromethylene)isothiochroman-4-one] | 64 (≈ 304 µM) | 4 (≈ 19 µM) | 16 (≈ 75.9 µM) | 4 (≈ 19 µM) | 32 (≈ 152 µM) | 32 (≈ 152 µM) | 8 (≈ 38 µM) | 16 (≈ 75.9 µM) | – | 4 (≈ 19 µM) | – | – | 45.5 | 36.6 | 56.8 | 48 | 30.4 | 42.6 | 45.6 | 40.5 | inhibition at 5 µg/mL (CRL-1469PANC-1): 40.6%; inhibition at 5 µg/mL (CRL-2233SNU-398): 58.9%; inhibition at 5 µg/mL (HTB-131MDA-MB-453): 56.7%; inhibition at 5 µg/mL (L1210): 78%; inhibition at 5 µg/mL (L428): 34.6%; inhibition at 5 µg/mL (SGC7901): 50.6%
Cc1ccc2c(c1)C(O)/C(=C/Cl)CS2 (centres unmarked) [Compound 17, (Z)-3-(chloromethylene)-6-methylthiochroman-4-ol] | 16 (≈ 70.6 µM) | 16 (≈ 70.6 µM) | 32 (≈ 141 µM) | 16 (≈ 70.6 µM) | 16 (≈ 70.6 µM) | 4 (≈ 17.6 µM) | 32 (≈ 141 µM) | 16 (≈ 70.6 µM) | – | 4 (≈ 17.6 µM) | 16 (≈ 70.6 µM) | 32 (≈ 141 µM) | – | – | – | – | – | – | – | – | –
Cc1ccc2c(c1)C(O)/C(=C\Cl)CS2 (centres unmarked) [Compound 25, (E)-3-(chloromethylene)-6-methylthiochroman-4-ol] | 16 (≈ 70.6 µM) | 4 (≈ 17.6 µM) | 8 (≈ 35.3 µM) | 16 (≈ 70.6 µM) | 16 (≈ 70.6 µM) | – | 8 (≈ 35.3 µM) | 32 (≈ 141 µM) | – | 16 (≈ 70.6 µM) | 16 (≈ 70.6 µM) | – | – | – | – | – | – | – | – | – | –
O=C1/C(=C\Cl)CSc2ncccc21 [Compound 27, (E)-3-(chloromethylene)-2H-thiopyrano[2,3-b]pyridin-4(3H)-one] | 8 (≈ 37.8 µM) | 4 (≈ 18.9 µM) | 16 (≈ 75.6 µM) | 8 (≈ 37.8 µM) | 4 (≈ 18.9 µM) | 4 (≈ 18.9 µM) | 2 (≈ 9.45 µM) | 16 (≈ 75.6 µM) | 16 (≈ 75.6 µM) | 8 (≈ 37.8 µM) | 32 (≈ 151 µM) | 4 (≈ 18.9 µM) | – | – | – | – | – | – | – | – | –
